Experimental data from patent US20210338846A1, “COMPETITIVE PROSTATE-SPECIFIC MEMBRANE ANTIGEN (PSMA) BINDING AGENTS FOR REDUCTION OF NON-TARGET ORGAN UPTAKE OF RADIOLABELED PSMA INHIBITORS FOR PSMA POSITIVE TUMOR IMAGING AND RADIOPHARMACEUTICAL THERAPY” (The Johns Hopkins University, priority 2018, published 2021).
Where two headings read alike, the source gives them in different places.

Key:
[1] = test system: PSMA+ PC-3 PiP and PSMA− PC-3 flu tumors; assay: Biodistribution of [177Lu]VK-I-45 without and with co-injection of competing inhibitor [Lu]VK-I-45; assay type: in vivo, mice; conditions: for Biodistribution: Blood / Biodistribution: Flu tumor / Biodistribution: PiP tumor / Biodistribution: Salivary gland / Biodistribution: kidneys / Biodistribution: spleen / Biodistribution: stomach: 2 Hour
Excerpt: VK-01-45 and its Lu-177 complex was reported in international PCT patent application publication no. WO 2017/165473 A, to Ray et al., which is incorporated herein by reference in its entirety. […] This approach can be applied to all compounds in WO 2017/165473 A1, to Ray et al.

[2] = biological target: PSMA (Homo sapiens, UniProt Q04609); conditions: read-out: Ki (PSMA inhibition); cited from earlier work
[3] = test system: PSMA+PiP tumors; conditions: cited from earlier work; for renal uptake (in words) / uptake in PSMA+ PiP tumors (in words): radiolabeled version
[4] = test system: PSMA+ PC-3 PiP and PSMA− PC-3 flu tumors; assay: Biodistribution of [177Lu]VK-03-27 without and with co-injection of competing inhibitor VK-03-27; assay type: in vivo, mice; conditions: for Biodistribution: Blood / Biodistribution: Flu tumor / Biodistribution: Lacrimal Glands / Biodistribution: PiP tumor / Biodistribution: Salivary gland / Biodistribution: kidneys / Biodistribution: spleen / Biodistribution: stomach: 2 Hour
[5] = test system: PSMA+ PC-3 PiP and PSMA− PC-3 flu tumors; conditions: for Biodistribution: Blood / Biodistribution: Flu tumor / Biodistribution: Lacrimal gland / Biodistribution: PiP tumor / Biodistribution: Salivary gland / Biodistribution: kidneys / Biodistribution: spleen / Biodistribution: stomach: without competitive inhibitor
[6] = co-injection 0.1 nmole [Lu]VK-I-45
[7] = co-injection 0.5 nmole [Lu]VK-I-45
[8] = co-injection 1.0 nmole [Lu]VK-I-45
[9] = co-injection 5.0 nmole [Lu]VK-I-45

Chain of PSMA (Q04609 whole entry): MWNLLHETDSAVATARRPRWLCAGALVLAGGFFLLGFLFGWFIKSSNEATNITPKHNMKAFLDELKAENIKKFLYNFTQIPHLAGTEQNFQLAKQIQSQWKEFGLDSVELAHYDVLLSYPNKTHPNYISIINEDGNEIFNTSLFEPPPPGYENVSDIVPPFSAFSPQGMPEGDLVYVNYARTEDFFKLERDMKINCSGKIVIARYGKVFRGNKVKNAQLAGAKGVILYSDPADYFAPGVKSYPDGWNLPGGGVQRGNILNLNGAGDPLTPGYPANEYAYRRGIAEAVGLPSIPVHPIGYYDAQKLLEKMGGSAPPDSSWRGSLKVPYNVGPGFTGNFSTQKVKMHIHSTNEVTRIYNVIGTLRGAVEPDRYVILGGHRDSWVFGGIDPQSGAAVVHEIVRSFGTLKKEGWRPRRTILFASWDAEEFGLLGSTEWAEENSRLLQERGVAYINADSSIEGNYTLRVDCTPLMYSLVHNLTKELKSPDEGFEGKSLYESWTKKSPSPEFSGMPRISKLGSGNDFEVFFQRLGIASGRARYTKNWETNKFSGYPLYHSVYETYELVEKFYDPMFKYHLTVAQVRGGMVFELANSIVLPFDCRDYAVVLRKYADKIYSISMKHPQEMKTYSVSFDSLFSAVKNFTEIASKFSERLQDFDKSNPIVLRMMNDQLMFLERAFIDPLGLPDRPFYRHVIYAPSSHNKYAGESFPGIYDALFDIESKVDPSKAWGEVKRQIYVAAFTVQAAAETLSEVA

Compound: O=C([O-])CN1CCN(CC(=O)[O-])CCN(CC(=O)NCCCCC(=O)N(CCCC[C@H](NC(=O)N[C@@H](CCC(=O)O)C(=O)O)C(=O)O)Cc2ccc(Br)cc2)CCN(CC(=O)[O-])CC1.[Lu+3] [[Lu]VK-01-45]
- effect of competing inhibitor on two-hour kidney uptake and retention of [177Lu]VK-01-45 ([1]; self blocking, only a modest reduction in PSMA+PiP tumor uptake): can be reduced

Compound: O=C(O)CCC(OC(=O)NC(CCCCNC(=O)c1ccc(I)cc1F)C(=O)O)C(=O)O (stereo not drawn) [Compound 24]
- Ki [2]: 0.2 nM
- renal uptake (in words) [3]: high initial renal uptake that decreases over time
- uptake in PSMA+ PiP tumors (in words) [3]: high uptake

Compound: O=C([O-])CN1CCN(CC(=O)[O-])CCN(CC(=O)NCCCCC(=O)N(CCCC[C@H](NC(=O)N[C@@H](CCC(=O)O)C(=O)O)C(=O)O)Cc2ccc(Br)cc2)CCN(CC(=O)[O-])CC1.[177Lu+3] [[^177Lu]VK-I-45]
- Biodistribution: Blood ([1]; No CI): 0.1 ± 0.04 % injected dose/gram
- Biodistribution: Flu tumor ([1]; No CI): 0.3 ± 0.06 % injected dose/gram
- Biodistribution: PiP tumor ([1]; No CI): 39 ± 14 % injected dose/gram
- Biodistribution: Salivary gland ([1]; No CI): 0.16 ± 0.07 % injected dose/gram
- Biodistribution: kidneys ([1]; No CI): 35 ± 17 % injected dose/gram
- Biodistribution: spleen ([1]; No CI): 0.7 ± 0.2 % injected dose/gram
- Biodistribution: stomach ([1]; No CI): 0.1 ± 0.04 % injected dose/gram
- Biodistribution: Blood [1, 6]: 0.12 ± 0.02 % injected dose/gram
- Biodistribution: Flu tumor [1, 6]: 0.4 ± 0.07 % injected dose/gram
- Biodistribution: PiP tumor [1, 6]: 38 ± 4 % injected dose/gram
- Biodistribution: Salivary gland [1, 6]: 0.16 ± 0.03 % injected dose/gram
- Biodistribution: kidneys [1, 6]: 17 ± 11 % injected dose/gram
- Biodistribution: spleen [1, 6]: 0.65 ± 0.1 % injected dose/gram
- Biodistribution: stomach [1, 6]: 0.2 ± 0.08 % injected dose/gram
- Biodistribution: Blood [1, 7]: 0.11 ± 0.04 % injected dose/gram
- Biodistribution: Flu tumor [1, 7]: 0.35 ± 0.07 % injected dose/gram
- Biodistribution: PiP tumor [1, 7]: 35 ± 8 % injected dose/gram
- Biodistribution: Salivary gland [1, 7]: 0.12 ± 0.02 % injected dose/gram
- Biodistribution: kidneys [1, 7]: 4.8 ± 1.4 % injected dose/gram
- Biodistribution: spleen [1, 7]: 0.32 ± 0.07 % injected dose/gram
- Biodistribution: stomach [1, 7]: 0.09 ± 0.02 % injected dose/gram
- Biodistribution: Blood [1, 8]: 0.07 ± 0.02 % injected dose/gram
- Biodistribution: Flu tumor [1, 8]: 0.2 ± 0.03 % injected dose/gram
- Biodistribution: PiP tumor [1, 8]: 20 ± 1.5 % injected dose/gram
- Biodistribution: Salivary gland [1, 8]: 0.07 ± 0.01 % injected dose/gram
- Biodistribution: kidneys [1, 8]: 1.75 ± 0.32 % injected dose/gram
- Biodistribution: spleen [1, 8]: 0.15 ± 0.02 % injected dose/gram
- Biodistribution: stomach [1, 8]: 0.13 ± 0.08 % injected dose/gram
- Biodistribution: Blood [1, 9]: 0.8 ± 0.04 % injected dose/gram
- Biodistribution: Flu tumor [1, 9]: 0.36 ± 0.14 % injected dose/gram
- Biodistribution: PiP tumor [1, 9]: 17.3 ± 1.9 % injected dose/gram
- Biodistribution: Salivary gland [1, 9]: 0.11 ± 0.04 % injected dose/gram
- Biodistribution: kidneys [1, 9]: 1.35 ± 0.44 % injected dose/gram
- Biodistribution: spleen [1, 9]: 0.14 ± 0.06 % injected dose/gram
- Biodistribution: stomach [1, 9]: 0.2 ± 0.18 % injected dose/gram

Compound: O=C(O)CCC(OC(=O)NC(CCCCNC(=O)c1ccc(Br)cc1F)C(=O)O)C(=O)O (stereo not drawn) [Compound 25]
- Ki [2]: 0.1 nM
- renal uptake (in words) [3]: high initial renal uptake that decreases over time
- uptake in PSMA+ PiP tumors (in words) [3]: high uptake

Compound: O=C(O)CC[C@H](NC(=O)N[C@@H](CCCCN(Cc1ccc(Br)cc1)C(=O)CCCCNC(=O)CCC(C(=O)O)N1CCN(CC(=O)O)CCN(CC(=O)O)CCN(CC(=O)O)CC1)C(=O)O)C(=O)O (stereo partly drawn) [VK-03-27]
- effect of competing inhibitor on uptake of [177Lu]VK-03-27 ([4]; VK-03-27 (no Lu complex) as the CI): reduces the uptake in kidneys, salivary glands and Lacrimal glands

Compound: O=C([O-])CN1CCN(CC(=O)[O-])CCN(C(CCC(=O)NCCCCC(=O)N(CCCC[C@H](NC(=O)N[C@@H](CCC(=O)O)C(=O)O)C(=O)O)Cc2ccc(Br)cc2)C(=O)O)CCN(CC(=O)[O-])CC1.[177Lu+3] (stereo partly drawn) [[^177Lu]VK-03-27]
- Biodistribution: Blood ([4]; No CI): 0.43 ± 0.6 % injected dose/gram
- Biodistribution: Flu tumor ([4]; No CI): 0.4 ± 0.02 % injected dose/gram
- Biodistribution: Lacrimal Glands ([4]; No CI): 1.06 ± 0.37 % injected dose/gram
- Biodistribution: PiP tumor ([4]; No CI): 55 ± 12 % injected dose/gram
- Biodistribution: Salivary gland ([4]; No CI): 1.2 ± 0.25 % injected dose/gram
- Biodistribution: kidneys ([4]; No CI): 140 ± 21 % injected dose/gram
- Biodistribution: spleen ([4]; No CI): 8.0 ± 2.8 % injected dose/gram
- Biodistribution: stomach ([4]; No CI): 0.44 ± 0.6 % injected dose/gram
- Biodistribution: Blood ([4]; co-injection 2 nmole VK-03-27): 0.23 ± 0.5 % injected dose/gram
- Biodistribution: Flu tumor ([4]; co-injection 2 nmole VK-03-27): 0.32 ± 0.05 % injected dose/gram
- Biodistribution: Lacrimal Glands ([4]; co-injection 2 nmole VK-03-27): 0.29 ± 0.08 % injected dose/gram
- Biodistribution: PiP tumor ([4]; co-injection 2 nmole VK-03-27): 37 ± 8 % injected dose/gram
- Biodistribution: Salivary gland ([4]; co-injection 2 nmole VK-03-27): 0.24 ± 0.04 % injected dose/gram
- Biodistribution: kidneys ([4]; co-injection 2 nmole VK-03-27): 10.6 ± 0.6 % injected dose/gram
- Biodistribution: spleen ([4]; co-injection 2 nmole VK-03-27): 0.8 ± 0.17 % injected dose/gram
- Biodistribution: stomach ([4]; co-injection 2 nmole VK-03-27): 0.23 ± 0.09 % injected dose/gram
- Biodistribution: Blood ([4]; co-injection 20 nmole VK-03-27): 0.25 ± 0.14 % injected dose/gram
- Biodistribution: Flu tumor ([4]; co-injection 20 nmole VK-03-27): 0.27 ± 0.05 % injected dose/gram
- Biodistribution: Lacrimal Glands ([4]; co-injection 20 nmole VK-03-27): 0.26 ± 0.05 % injected dose/gram
- Biodistribution: PiP tumor ([4]; co-injection 20 nmole VK-03-27): 26 ± 4 % injected dose/gram
- Biodistribution: Salivary gland ([4]; co-injection 20 nmole VK-03-27): 0.16 ± 0.04 % injected dose/gram
- Biodistribution: kidneys ([4]; co-injection 20 nmole VK-03-27): 3.5 ± 0.56 % injected dose/gram
- Biodistribution: spleen ([4]; co-injection 20 nmole VK-03-27): 0.39 ± 0.18 % injected dose/gram
- Biodistribution: stomach ([4]; co-injection 20 nmole VK-03-27): 0.45 ± 0.35 % injected dose/gram
- Biodistribution: Blood ([4]; co-injection 40 nmole VK-03-27): 0.16 ± 0.03 % injected dose/gram
- Biodistribution: Flu tumor ([4]; co-injection 40 nmole VK-03-27): 0.25 ± 0.05 % injected dose/gram
- Biodistribution: Lacrimal Glands ([4]; co-injection 40 nmole VK-03-27): 0.26 ± 0.11 % injected dose/gram
- Biodistribution: PiP tumor ([4]; co-injection 40 nmole VK-03-27): 18 ± 3 % injected dose/gram
- Biodistribution: Salivary gland ([4]; co-injection 40 nmole VK-03-27): 0.25 ± 0.21 % injected dose/gram
- Biodistribution: kidneys ([4]; co-injection 40 nmole VK-03-27): 2.15 ± 0.1 % injected dose/gram
- Biodistribution: spleen ([4]; co-injection 40 nmole VK-03-27): 0.21 ± 0.1 % injected dose/gram
- Biodistribution: stomach ([4]; co-injection 40 nmole VK-03-27): 0.42 ± 0.21 % injected dose/gram
- Biodistribution: Blood ([5]; 2 Hour): 1.2 ± 1.7 % injected dose/gram
- Biodistribution: Flu tumor ([5]; 2 Hour): 5.8 ± 9.6 % injected dose/gram
- Biodistribution: Lacrimal gland ([5]; 2 Hour): 5.8 ± 9.6 % injected dose/gram
- Biodistribution: PiP tumor ([5]; 2 Hour): 50 ± 14 % injected dose/gram
- Biodistribution: Salivary gland ([5]; 2 Hour): 3.4 ± 4.4 % injected dose/gram
- Biodistribution: kidneys ([5]; 2 Hour): 150 ± 32 % injected dose/gram
- Biodistribution: spleen ([5]; 2 Hour): 7.4 ± 3.0 % injected dose/gram
- Biodistribution: stomach ([5]; 2 Hour): 0.66 ± 0.75 % injected dose/gram
- Biodistribution: Blood ([5]; 8 Hour): 0.06 ± 0.02 % injected dose/gram
- Biodistribution: Flu tumor ([5]; 8 Hour): 0.25 ± 0.05 % injected dose/gram
- Biodistribution: Lacrimal gland ([5]; 8 Hour): 0.25 ± 0.05 % injected dose/gram
- Biodistribution: PiP tumor ([5]; 8 Hour): 41 ± 9 % injected dose/gram
- Biodistribution: Salivary gland ([5]; 8 Hour): 0.34 ± 0.18 % injected dose/gram
- Biodistribution: kidneys ([5]; 8 Hour): 52 ± 18 % injected dose/gram
- Biodistribution: spleen ([5]; 8 Hour): 1.2 ± 0.6 % injected dose/gram
- Biodistribution: stomach ([5]; 8 Hour): 0.32 ± 0.31 % injected dose/gram
- Biodistribution: Blood ([5]; 24 Hour): 0.03 ± 0.01 % injected dose/gram
- Biodistribution: Flu tumor ([5]; 24 Hour): 0.12 ± 0.02 % injected dose/gram
- Biodistribution: Lacrimal gland ([5]; 24 Hour): 0.12 ± 0.02 % injected dose/gram
- Biodistribution: PiP tumor ([5]; 24 Hour): 49 ± 7 % injected dose/gram
- Biodistribution: Salivary gland ([5]; 24 Hour): 0.16 ± 0.06 % injected dose/gram
- Biodistribution: kidneys ([5]; 24 Hour): 5.9 ± 2.7 % injected dose/gram
- Biodistribution: spleen ([5]; 24 Hour): 0.28 ± 0.13 % injected dose/gram
- Biodistribution: stomach ([5]; 24 Hour): 0.14 ± 0.03 % injected dose/gram
- PSMA+ PiP tumor uptake (in words) ([5]; Table 7): high PSMA+PipTumor uptake
- renal uptake (in words) ([5]; Table 7): very high early renal uptake

Compound: O=C(O)CC[C@H](NC(=O)N[C@@H](CCCCNC(=O)c1ccc(I)cc1)C(=O)O)C(=O)O [YC-I-27]
- uptake and retention in kidneys ([3]; radiolabeled form, out to two days post-injection): > 100 % ID/g
- uptake in PSMA+ PiP tumors (in words) [3]: high and prolonged uptake

Compound: O=C(O)CC[C@H](NC(=O)N[C@@H](CCC(=O)NCCc1ccc(I)cc1)C(=O)O)C(=O)O [HS-549]
- renal uptake (in words) [3]: high initial kidney uptake
- uptake in PSMA+ PiP tumors (in words) [3]: high PSMA+Pip tumor uptake
